# Data taken from US8143228B2, “Agents capable of downregulating an MSF-A dependent HIF-1α and use thereof in cancer treatment” (Medical Research Fund of Tel Aviv Sourasky Medical Center, priority 2004, dated 2012).
# Where a SMILES comes first, the peptide text is derived from it. The star is where a group is joined. Cbz = O=C(OCc1ccccc1)*
# Tested on: HIF-1α and Ub-HIF-1α
# Test: Proteasome inhibition and HIF-1α ubiquitination, Western blot
# Type: cell-based
# Conditions: PC-3-Neo cells, 4 hours, 5 and 20 μM
# Procedure: FIGS. 19a-b are Western blot analyses depicting the effect of proteasome inhibition on HIF-1α (FIG. 19a) or actin (FIG. 19b) expression levels in PC-3-MSF-A or PC-3-Neo cells. PC-3-Neo (lanes 1-3) and PC-3-MSF-A (lanes 4-6) cells were treated for 4 hours with either 0.1 DMSO (lanes 1 and 4) or with 5 (lanes 2 and 5) and 20 (lanes 3 and 6) μM MG-132. Whole cell lysates were prepared and equal amounts of protein from each cell lysate were resolved by SDS-PAGE, transferred and immunoblotted with antibodies against HIF-1α (FIG. 19a) and actin (FIG. 19b). Ub-HIF-1α points to ubiquitinated HIF-1α protein species.
# FIGS. 20a-b are Western blot analyses of HIF-1α immunoprecipitates depicting the expression level of HIF-1α (FIG. 20a) and ubiquitin (FIG. 20b) in PC-3-Neo and PC-3-MSF-A cells. PC-3-Neo (lanes 1-2) and PC-3-MSF-A (lanes 3-4) cells were treated for 4 hours with either 0.1 DMSO (lanes 1 and 3) or with 10 μM MG-132 (lanes 2 and 4). Whole cell lysates were prepared and subjected to immunoprecipitation (IP) with HIF-1α antibody. Immunoprecipitates were resolved on SDS-PAGE and immunoblotted (IB) with HIF-1α (FIG. 20a) and ubiquitin (FIG. 20b) antibodies. Ub-HIF-1α points to ubiquitinated HIF-1α protein species.
# To study the ubiquitination of the endogenous HIF-1α in cells over-expressing MSF-A protein, the proteasome inhibitor MG-132 was used. […]
smiles,measurement,value
CC(C)C[C@@H](C=O)NC(=O)[C@H](CC(C)C)NC(=O)[C@H](CC(C)C)NC(=O)OCc1ccccc1 [MG-132] (Cbz-Leu-Leu-Leu-aldehyde),expression of HIF-1α and Ub-HIF-1α,induced the expression of HIF-1α and Ub-HIF-1α
